System: NCI-H23 complex spheroids with HUVEC/MSC, viability
Experiment: Anticancer human tumor NCI-H23 cell line growth inhibition [RAS];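 further: spheroids exposed to compound for 7 days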;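 on viability, T/C: 100% = DMSO vehicle control viability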
Conditions: for IC50: curve of first compound; for viability, T/C: stronger effect = lower value
Method in brief: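 Agents were tested in combination matrices in half-log decrements from a top concentration at or near clinical Cmax (10 microM if undetermined). Targets were multi-cell spheroids of tumour lines plus HUVEC and MSC stromal cells.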

[1] = second compound 0.0316 µM, first compound 0.00316 µM
[2] = second compound 0.0316 µM, first compound 0.01 µM
[3] = second compound 0.0316 µM, first compound 0.0316 µM
[4] = second compound 0.0316 µM, first compound 0.1 µM
[5] = second compound 0.0316 µM, first compound 0.316 µM
[6] = second compound 0.0316 µM, first compound 1 µM
[7] = second compound 0.1 µM, first compound 0.00316 µM
[8] = second compound 0.1 µM, first compound 0.01 µM
[9] = second compound 0.1 µM, first compound 0.0316 µM
[10] = second compound 0.1 µM, first compound 0.1 µM
[11] = second compound 0.1 µM, first compound 0.316 µM
[12] = second compound 0.1 µM, first compound 1 µM
[13] = second compound 0.316 µM, first compound 0.00316 µM
[14] = second compound 0.316 µM, first compound 0.01 µM
[15] = second compound 0.316 µM, first compound 0.0316 µM
[16] = second compound 0.316 µM, first compound 0.1 µM
[17] = second compound 0.316 µM, first compound 0.316 µM
[18] = second compound 0.316 µM, first compound 1 µM
[19] = second compound 1 µM, first compound 0.00316 µM
[20] = second compound 1 µM, first compound 0.01 µM
[21] = second compound 1 µM, first compound 0.0316 µM
[22] = second compound 1 µM, first compound 0.1 µM
[23] = second compound 1 µM, first compound 0.316 µM
[24] = second compound 1 µM, first compound 1 µM

Q: For `Nc1ccn(C2OC(CO)C(O)C2(F)F)c(=O)n1` (stereo unspecified) + C=CC(=O)N1CCN(c2nc(OCC3CCCN3C)nc3c(F)c(-c4nc(N)cc(C)c4C(F)(F)F)c(Cl)cc23)C(C)C1, which IC50 (second compound 0.00316 µM) is on record?
A: < 0.00316 µM

Q: And the IC50 (second compound 0.01 µM)?
A: < 0.00316 µM

Q: And the IC50 (second compound 0.0316 µM)?
A: < 0.00316 µM

Q: What about the IC50 (second compound 0.1 µM) of the same molecule?
A: < 0.00316 µM

Q: What about the IC50 (second compound 0.316 µM) of the same molecule?
A: < 0.00316 µM

Q: What about the IC50 (second compound 1 µM) of the same molecule?
A: < 0.00316 µM

Q: What about the viability, T/C (second compound 0.00316 µM, first compound 0.00316 µM) of the same molecule?
A: 29.9%

Q: And the viability, T/C (second compound 0.00316 µM, first compound 0.01 µM)?
A: 4.17%

Q: What about the viability, T/C (second compound 0.00316 µM, first compound 0.0316 µM) of the same molecule?
A: 1.98%

Q: What about the viability, T/C (second compound 0.00316 µM, first compound 0.1 µM) of the same molecule?
A: 2.04%

Q: What about the viability, T/C (second compound 0.00316 µM, first compound 0.316 µM) of the same molecule?
A: 2.83%

Q: And the viability, T/C (second compound 0.00316 µM, first compound 1 µM)?
A: 2.41%

Q: What about the viability, T/C (second compound 0.01 µM, first compound 0.00316 µM) of the same molecule?
A: 34.3%

Q: What about the viability, T/C (second compound 0.01 µM, first compound 0.01 µM) of the same molecule?
A: 3.54%

Q: And the viability, T/C (second compound 0.01 µM, first compound 0.0316 µM)?
A: 2.75%

Q: And the viability, T/C (second compound 0.01 µM, first compound 0.1 µM)?
A: 2.39%

Q: And the viability, T/C (second compound 0.01 µM, first compound 0.316 µM)?
A: 2.2%

Q: What about the viability, T/C (second compound 0.01 µM, first compound 1 µM) of the same molecule?
A: 2.54%

Q: What about the viability, T/C [1] of the same molecule?
A: 24.9%

Q: What about the viability, T/C [2] of the same molecule?
A: 3.04%

Q: What about the viability, T/C [3] of the same molecule?
A: 2.2%

Q: And the viability, T/C [4]?
A: 2.3%

Q: And the viability, T/C [5]?
A: 2.25%

Q: And the viability, T/C [6]?
A: 3.18%

Q: What about the viability, T/C [7] of the same molecule?
A: 20.2%

Q: What about the viability, T/C [8] of the same molecule?
A: 2.99%

Q: What about the viability, T/C [9] of the same molecule?
A: 2.63%

Q: And the viability, T/C [10]?
A: 1.97%

Q: What about the viability, T/C [11] of the same molecule?
A: 2.37%

Q: And the viability, T/C [12]?
A: 2.09%

Q: What about the viability, T/C [13] of the same molecule?
A: 24.8%

Q: And the viability, T/C [14]?
A: 3.77%

Q: And the viability, T/C [15]?
A: 2.05%

Q: What about the viability, T/C [16] of the same molecule?
A: 1.47%

Q: What about the viability, T/C [17] of the same molecule?
A: 2.4%

Q: What about the viability, T/C [18] of the same molecule?
A: 2.12%

Q: And the viability, T/C [19]?
A: 21.4%

Q: What about the viability, T/C [20] of the same molecule?
A: 4.48%

Q: And the viability, T/C [21]?
A: 3.25%

Q: And the viability, T/C [22]?
A: 2.34%

Q: What about the viability, T/C [23] of the same molecule?
A: 2.71%

Q: And the viability, T/C [24]?
A: 2.67%

Q: Which results are given for `C=CC(=O)N1CCN(c2nc(OCC3CCCN3C)nc3c(F)c(-c4nc(N)cc(C)c4C(F)(F)F)c(Cl)cc23)C(C)C1` (stereo unspecified) + C#Cc1c(F)ccc2cc(O)cc(-c3ncc4c(N5CC6CCC(C5)N6)nc(OCC56CCCN5CC(F)C6)nc4c3F)c12?
A: IC50 (second compound 0.0316 µM): 0.0115 µM; IC50 (second compound 0.1 µM): 0.0192 µM; IC50 (second compound 0.316 µM): 0.0242 µM; IC50 (second compound 1 µM): 0.0138 µM; IC50 (second compound 3.16 µM): 0.0113 µM; IC50 (second compound 10 µM): < 0.00316 µM; viability, T/C [1]: 72.4%; viability, T/C [2]: 52.6%; viability, T/C [3]: 40.5%; viability, T/C [4]: 35.5%; viability, T/C [5]: 38%; viability, T/C [6]: 36.3%; viability, T/C [7]: 80.7%; viability, T/C [8]: 58.2%; viability, T/C [9]: 45.3%; viability, T/C [10]: 35.7%; viability, T/C [11]: 30.3%; viability, T/C [12]: 42.2%; viability, T/C [13]: 65.2%; viability, T/C [14]: 61.3%; viability, T/C [15]: 46.5%; viability, T/C [16]: 37.9%; viability, T/C [17]: 35%; viability, T/C [18]: 37.2%; viability, T/C [19]: 83.2%; viability, T/C [20]: 54.5%; viability, T/C [21]: 37.7%; viability, T/C [22]: 39.2%; viability, T/C [23]: 39.5%; viability, T/C [24]: 37.7%; viability, T/C (second compound 3.16 µM, first compound 0.00316 µM): 59.9%; viability, T/C (second compound 3.16 µM, first compound 0.01 µM): 55.9%; viability, T/C (second compound 3.16 µM, first compound 0.0316 µM): 38.4%; viability, T/C (second compound 3.16 µM, first compound 0.1 µM): 42.3%; viability, T/C (second compound 3.16 µM, first compound 0.316 µM): 39.8%; viability, T/C (second compound 3.16 µM, first compound 1 µM): 38.5%; viability, T/C (second compound 10 µM, first compound 0.00316 µM): 35.7%; viability, T/C (second compound 10 µM, first compound 0.01 µM): 39.6%; viability, T/C (second compound 10 µM, first compound 0.0316 µM): 42.4%; viability, T/C (second compound 10 µM, first compound 0.1 µM): 32.3%; viability, T/C (second compound 10 µM, first compound 0.316 µM): 30.4%; viability, T/C (second compound 10 µM, first compound 1 µM): 33.5%

Q: Which IC50 (second compound 0.000949 µM) does the source give for `NC1c2ccccc2OC12CCN(c1cnc3c(N4CCCc5ncccc54)n[nH]c3n1)CC2` (stereo unspecified) + CCn1c(-c2cc(N3CCN(C)CC3)cnc2C(C)OC)c2c3cc(ccc31)-c1csc(n1)CC(NC(=O)C1CC1C)C(=O)N1CCCC(N1)C(=O)OCC(C)(C)C2 here?
A: < 0.0316 µM

Q: What about the IC50 (second compound 0.003 µM) of the same molecule?
A: < 0.0316 µM

Q: And the IC50 (second compound 0.00949 µM)?
A: < 0.0316 µM

Q: What about the IC50 (second compound 0.03 µM) of the same molecule?
A: < 0.0316 µM

Q: And the IC50 (second compound 0.0949 µM)?
A: < 0.0316 µM

Q: And the IC50 (second compound 0.3 µM)?
A: < 0.0316 µM

Q: And the viability, T/C (second compound 0.000949 µM, first compound 0.0316 µM)?
A: 29%

Q: What about the viability, T/C (second compound 0.000949 µM, first compound 0.1 µM) of the same molecule?
A: 22.1%

Q: And the viability, T/C (second compound 0.000949 µM, first compound 0.316 µM)?
A: 15.2%

Q: What about the viability, T/C (second compound 0.000949 µM, first compound 1 µM) of the same molecule?
A: 15.1%

Q: And the viability, T/C (second compound 0.000949 µM, first compound 3.16 µM)?
A: 10.4%

Q: And the viability, T/C (second compound 0.000949 µM, first compound 10 µM)?
A: 7.21%

Q: And the viability, T/C (second compound 0.003 µM, first compound 0.0316 µM)?
A: 23.4%

Q: And the viability, T/C (second compound 0.003 µM, first compound 0.1 µM)?
A: 15.7%

Q: What about the viability, T/C (second compound 0.003 µM, first compound 0.316 µM) of the same molecule?
A: 12.3%

Q: And the viability, T/C (second compound 0.003 µM, first compound 1 µM)?
A: 8.99%

Q: And the viability, T/C (second compound 0.003 µM, first compound 3.16 µM)?
A: 8.38%

Q: And the viability, T/C (second compound 0.003 µM, first compound 10 µM)?
A: 5.79%

Q: And the viability, T/C (second compound 0.00949 µM, first compound 0.0316 µM)?
A: 19.4%

Q: And the viability, T/C (second compound 0.00949 µM, first compound 0.1 µM)?
A: 13.9%

Q: What about the viability, T/C (second compound 0.00949 µM, first compound 0.316 µM) of the same molecule?
A: 9.85%

Q: What about the viability, T/C (second compound 0.00949 µM, first compound 1 µM) of the same molecule?
A: 7.3%

Q: And the viability, T/C (second compound 0.00949 µM, first compound 3.16 µM)?
A: 5.1%

Q: And the viability, T/C (second compound 0.00949 µM, first compound 10 µM)?
A: 5.27%

Q: And the viability, T/C (second compound 0.03 µM, first compound 0.0316 µM)?
A: 15.7%

Q: And the viability, T/C (second compound 0.03 µM, first compound 0.1 µM)?
A: 12.8%

Q: What about the viability, T/C (second compound 0.03 µM, first compound 0.316 µM) of the same molecule?
A: 8.98%

Q: What about the viability, T/C (second compound 0.03 µM, first compound 1 µM) of the same molecule?
A: 5.94%

Q: What about the viability, T/C (second compound 0.03 µM, first compound 3.16 µM) of the same molecule?
A: 4.97%

Q: What about the viability, T/C (second compound 0.03 µM, first compound 10 µM) of the same molecule?
A: 5.95%

Q: What about the viability, T/C (second compound 0.0949 µM, first compound 0.0316 µM) of the same molecule?
A: 12.9%

Q: What about the viability, T/C (second compound 0.0949 µM, first compound 0.1 µM) of the same molecule?
A: 9.83%

Q: What about the viability, T/C (second compound 0.0949 µM, first compound 0.316 µM) of the same molecule?
A: 6.34%

Q: And the viability, T/C (second compound 0.0949 µM, first compound 1 µM)?
A: 5.78%

Q: And the viability, T/C (second compound 0.0949 µM, first compound 3.16 µM)?
A: 4.29%

Q: What about the viability, T/C (second compound 0.0949 µM, first compound 10 µM) of the same molecule?
A: 6.19%

Q: What about the viability, T/C (second compound 0.3 µM, first compound 0.0316 µM) of the same molecule?
A: 11%

Q: What about the viability, T/C (second compound 0.3 µM, first compound 0.1 µM) of the same molecule?
A: 7.93%

Q: What about the viability, T/C (second compound 0.3 µM, first compound 0.316 µM) of the same molecule?
A: 6.42%

Q: What about the viability, T/C (second compound 0.3 µM, first compound 1 µM) of the same molecule?
A: 4.7%

Q: And the viability, T/C (second compound 0.3 µM, first compound 3.16 µM)?
A: 4.58%

Q: And the viability, T/C (second compound 0.3 µM, first compound 10 µM)?
A: 5.26%
